Data from PubChem BioAssay (NCI).
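Protocol summary: plate cells (96-well), add compound at 5 concentrations, incubate 48 h, interpolate endpoints linearly. At the GI50, growth is halved. The concentration for full growth arrest is given as TGI.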

Tests used:
Experiment in all cases: growth of human tumour cells (NCI), 48 h
[1] = system: SNB-19 CNS
[2] = system: IGROV1 ovarian
[3] = system: CAKI-1 renal
[4] = system: A549 NSCLC
[5] = system: HCC-2998 colon
[6] = system: RXF 393 renal
[7] = system: UO-31 renal
[8] = system: NCI-H226 lung
[9] = system: SK-OV-3 ovarian
[10] = system: CCRF-CEM leukemia

| Structure (SMILES) | TGI [1] | TGI [2] | TGI [3] | TGI [4] | TGI [5] | TGI [6] | TGI [7] | TGI [8] | TGI [9] | TGI [10] | GI50 [1] | GI50 [2] | GI50 [3] | GI50 [4] | GI50 [5] | GI50 [6] | GI50 [7] | GI50 [8] | GI50 [10] |
| --- | --- | --- | --- | --- | --- | --- | --- | --- | --- | --- | --- | --- | --- | --- | --- | --- | --- | --- | --- |
| Cn1ncc2c(Nc3cccc(Cl)c3)nc(Nc3cccc(Cl)c3)nc21 | > 94 µM | > 66.6 µM | 30.8 µM | > 53.4 µM | 27.6 µM | 11.6 µM | 35.4 µM | > 72.3 µM | 54 µM | 2.89 µM | – | – | – | – | – | – | – | – | – |
| CCOC(=O)C(Cc1cn(C(C)=O)c2ccccc12)P(=O)(OCC)OCC (stereo not drawn) | > 100 µM | > 100 µM | > 100 µM | > 100 µM | > 100 µM | – | > 100 µM | > 100 µM | > 100 µM | – | – | – | – | – | – | – | – | – | – |
| CC(C)C(=O)CC(c1ccc(Cl)cc1)N1N=C(C(C)C)CC1c1ccc(Cl)cc1 (stereo not drawn) | > 100 µM | > 100 µM | > 94.9 µM | > 100 µM | > 100 µM | > 100 µM | > 100 µM | > 100 µM | – | > 69.8 µM | – | – | – | – | – | – | – | – | – |
| N#CCCN(CCC#N)c1ccc(/C=C(\NC(=O)c2cc([N+](=O)[O-])ccc2Cl)C(=O)Nc2ccccc2)cc1 | > 100 µM | > 100 µM | > 100 µM | > 100 µM | – | > 100 µM | > 100 µM | > 100 µM | > 100 µM | > 100 µM | – | – | – | – | – | – | – | – | – |
| COc1ccc(C(O)(c2ccccc2)c2nccc3ccccc23)cc1 (stereo not drawn) | > 100 µM | > 100 µM | > 100 µM | > 100 µM | – | 44.2 µM | > 100 µM | – | > 100 µM | 8.98 µM | – | – | – | – | – | – | – | – | – |
| Cc1[nH]c(=O)[nH]c(=O)c1/C=C/C(=O)NC(CO)CS(=O)Cc1ccccc1 (stereo not drawn) | > 300 µM | > 300 µM | > 300 µM | > 300 µM | > 300 µM | > 300 µM | > 300 µM | > 300 µM | > 300 µM | > 300 µM | – | – | – | – | – | – | – | – | – |
| O=C(O)CCc1nc2ccccc2[nH]1 | > 100 µM | > 100 µM | > 100 µM | > 100 µM | > 100 µM | > 100 µM | > 100 µM | > 100 µM | > 100 µM | > 100 µM | – | – | – | – | – | – | – | – | – |
| C/C(=N\NC(=S)N(C)C)c1nc2ncccc2[nH]1 | 36.1 µM | 70 µM | 3.75 µM | > 100 µM | – | > 100 µM | 1.89 µM | 2.05 µM | 5.53 µM | – | – | – | – | – | – | – | – | – | – |
| OCCCNc1ncnc2[nH]ncc12 | > 100 µM | > 100 µM | > 100 µM | > 100 µM | > 100 µM | > 100 µM | > 100 µM | > 100 µM | > 100 µM | > 100 µM | – | – | – | – | – | – | – | – | – |
| O=C(Nc1ccc(-n2cc(-c3ccncc3)c(-c3ccc(O)c(Cl)c3)n2)cc1)Nc1ccc(Cl)c(C(F)(F)F)c1 | 19 µM | 30.3 µM | 19.8 µM | 17.4 µM | 20.1 µM | 3.56 µM | 16.4 µM | 51.8 µM | – | 22.3 µM | 5.06 µM | 4.42 µM | 3.17 µM | 3.6 µM | 4.65 µM | 1.67 µM | 3.01 µM | 21.4 µM | 3.2 µM |
| Cn1ccc(C(=O)NCCN(CCNC(=O)c2ccn(C)c(=O)c2O)CCNC(=O)c2ccn(C)c(=O)c2O)c(O)c1=O | > 100 µM | > 100 µM | > 100 µM | > 100 µM | > 100 µM | > 100 µM | > 100 µM | > 100 µM | > 100 µM | > 100 µM | – | – | – | – | – | – | – | – | – |
| C/C(=N\NC(=S)NCCCCNC(=S)N/N=C(\C)c1ccccn1)c1ccccc1 | > 87.1 µM | > 28.8 µM | > 100 µM | > 58 µM | > 100 µM | > 23.1 µM | 13.1 µM | > 23.6 µM | 38.9 µM | – | – | – | – | – | – | – | – | – | – |
| Cc1c(Cl)nc(Cl)nc1Cl | 9.09 µM | 8.33 µM | 0.695 µM | 7.34 µM | 2.73 µM | 4.07 µM | 1.18 µM | 8.46 µM | 11.7 µM | 0.676 µM | – | – | – | – | – | – | – | – | – |
| c1ccc(C(NC2=NCCO2)c2ccccc2)cc1 | > 10 µM | > 10 µM | > 10 µM | > 10 µM | > 10 µM | > 10 µM | > 10 µM | > 10 µM | > 10 µM | > 10 µM | – | – | – | – | – | – | – | – | – |
| CCCn1cc2c(SC)nc(SC)nc2n1 | > 100 µM | > 100 µM | > 100 µM | > 100 µM | > 100 µM | > 100 µM | > 100 µM | > 100 µM | – | > 100 µM | – | – | – | – | – | – | – | – | – |
